Measured values as given in patent publication US20210340178A1, “NONAPEPTIDE PREVENTING INCREASED HYPERPERMEABILITY OF VASCULAR ENDOTHELIUM” (FEDERALNOYE GOSUDARSTVENNOE BUDGETNOE UCHREZHDENIE …, priority 2018, published 2021).
“Also recorded” adds a separate entry of the source. Where two headings read alike, the source gives them in different places. Non-standard residues stand in square brackets, D forms with d. Residues, ends and D or L forms follow the SMILES beside them.

Tests used:
Chinchilla rabbits = experiment: Tolerance of a single intravenous injection in Chinchilla rabbits; settings: i.v. 10 mg/kg
Procedure: PIK2 dose of 5 mg/kg was calculated individually for each rabbit and administered into marginal ear vein in a final volume of 1.7-1.9 mL in sterile physiological saline. Stock concentration of the tested substance was 10 mg/mL.
During the 24-hrs testing period, the overall health status and behavior were monitored (appetite, motion activity, hair coat condition).
Before injection of test substances (baseline) and 4 hrs and 24 hrs after the injection, the following parameters were tested in whole venous blood samples (3.0-3.5 mL) collected from a marginal ear vein red blood cell (RBC) count, hematocrit, hemoglobin level, mean RBC volume, mean corpuscular hemoglobin, total leukocyte, lymphocyte, and granulocyte counts and their percentages, platelet count, and mean platelet volume. In parallel, the following biochemical parameters were measured in serum total protein, bilirubin, urea, creatinine, glucose, total cholesterol, triglycerides, and activities of alkaline phosphatase, lactate dehydrogenase, aspartate aminotransferase, and alanine aminotransferase. Blood cell count was performed using an Abacus junior vet (Austria) hematological cell counter; biochemical studies were performed using a Targa-2000 (Italy) instrument.

[1] = test system: EA.hy926 endothelial cell monolayer; experiment: Thrombin-mediated FITC-dextran permeability through endothelial cell monolayer; format: cell-based; settings: peptide 100 μM, 60 min preincubation; thrombin 100 nM; 70 kDa FITC-dextran
Procedure: FIG. 3. The thrombin-mediated FITC-dextran permeability through the EA.hy926 endothelial cell monolayer in the presence of myosin light chain kinase peptide inhibitors. Thrombin (100 nM) was added at 0 min, the cells were preincubated for 60 min with MLCK peptide inhibitors (100 μM). Data are presented as mean±SD, n=5. p<0.05 for all data points within the 20-180 min time course range as compared to the thrombin-stimulated control.
Effects of the claimed peptide (PIK7), the prototype (PIK2), and the analogue (MLC11-19) on the endothelial permeability was assayed in a model of FITC-dextran diffusion through the endothelial monolayer as described in Example 3.
Cells were grown in 24-well plates (Greiner Bio-one, Austria) equipped with special inserts to form inner (upper) chambers with a porous bottom (the pore diameter of 0.4 μm, pore density of 10^8/cm^2) in DMEM until monolayer was formed (3-4 days). Successful monolayer was checked by measuring FITC-dextran diffusion for 1 hour through inserts with cell monolayers vs inserts without cells (‘blank’ inserts). Experiments were performed in triplicates when tight monolayers were formed. On the day of experiment, the cells were deprived for 1 h in DMEM supplemented with MLCK inhibitors or without inhibitors (control). After deprivation, FITC-dextran was added to the upper compartment to a final concentration of 0.05 mg/ml. In 30 and 60 min, a 10-μ1 aliquot was withdrawn from the lower compartment and mixed with 100 μl phosphate buffered saline pH 7.3 in a 96-well plate to estimate the endothelial monolayer baseline permeability. […] During the next 3 hrs, every 30 min, aliquots were taken from the lower compartment, and intensity of FITC fluorescence was measured using a Victor 3X plate reader (Perkin Elmer, USA) to plot the dynamics of the FITC fluorescence changes.
As shown, 100 nM thrombin induces the endothelial hyperpermeability response as reflected by an increase in 70 kDa FITC-dextran diffusion through the endothelial monolayer and an incremental increase in the fluorescence in the lower compartment of the diffusion chamber. […]

[2] = Peptide half-lives in human plasma in vitro (1H-NMR spectroscopy); format: in vitro ADME; settings: for half-life: human, plasma
Procedure: Whole blood (100 mL) was collected from healthy donors to 50-mL tubes containing 5 mL of a preservative (130 mM citrate in phosphate buffered saline (PBS), pH 7.4). The blood was incubated for 15-20 min at room temperature followed by centrifugation at 1500 g for 15 min at 18° C. The supernatants were transferred to clear tubes and centrifuged as above. Dry NaBr was added to the plasma (280 mg per 1 mL of plasma). After dissolution of NaBr, the plasma (approx. 30 mL) was transferred to centrifuge tubes (Type 45Ti rotor, Beckman, USA) and layered with 20 mL of a solution (specific mass of […]), which was prepared as follows—11.42 g of NaCl and 100 mg of ethylenediaminetetraacetic acid (EDTA) were dissolved in distilled water in a final volume of 1 L (pH 7.4) and 281.44 g of NaBr was added. The plasma was centrifuged at 40,000 rpm for 48 hrs. The upper dark-yellow fraction containing lipoproteins and the colorless buffer fraction were discarded leaving approx. 1-cm high buffer above the apparent plasma border. Portions of plasma obtained from one donor were pooled and dialyzed for 36 hrs against 4 L of PSB free of Ca^2+ and Mg^2+(MP Biomedicals, USA) in dialysis bags with 12-14 kDa pore sizes. The dialysis procedure was repeated twice with fresh buffer changed every 24 hrs. After the dialysis, the plasma was centrifuged at 25,000 rpm (Type 45Ti rotor, Beckman, USA) for 15 min at 4° C. The supernatant fraction was collected and lyophilized. The dry matter was dissolved in D2O in a final volume equal to the plasma volume before NaBr was added, lyophilized again, dissolved in the same volume of D2O, and stored in 1-mL aliquots at −20° C. before use.
^1H-NMR spectroscopy was employed to analyze relative degradation of PIK7 (the claimed peptide) and MLC11-19 (the structural analogue) in human plasma. ^1H-NMR spectroscopy allows simultaneous direct monitoring the amounts of original full-length peptide and its fragments during the course of enzymatic hydrolysis (Isakova et al., 1986). Stability of a peptide, its degradation pathway(s) and a half-life estimate are available from a comparison of spectra obtained at different time points after the addition of a peptide to plasma. ^1H-NMR spectra were obtained using a WM-500 spectrometer (Bruker, Germany) at 37° C. Chemical shifts in ^1H-NMR spectra were measured relative to an internal standard (2,2-dimethyl-2-silapentane-5-sulfonate sodium salt). The signals were referenced by the double-resonance method. The resonances from peptide protons were identified by the differential spectroscopy method, i.e. the spectrum of blood plasma was subtracted from each spectrum obtained in the presence of peptide of interest. Peptide concentrations were 3 mg/ml.
These indicate the peptide N-terminus degradation. […] Therefore, the claimed peptide has an increased life-span in plasma that allows for long-lasting maintenance of its effective concentrations necessary to decrease the endothelial hyperpermeability under emergency conditions. Moreover, an increased life-time allows attaining the desired therapeutic effect with lower (as compared to homologues) peptide concentrations.

[3] = Acute toxicity in mice, single injection; format: in vivo; settings: mouse, in vivo; mice, Table 3; read-out: Toxicity LD50 in mice
Procedure: (§1) The study was conducted in 82 BALB/c mice (both males and females, body weight 18-24 g) obtained from the animal facility of the Scientific Center for Biomedical Technologies of the Federal Medico-Biological Agency of the Russian Federation (SCBMT). The animals were certified and otherwise healthy. The animals were kept in T-3 cages (5-10 animals per cage) with artificial 12 hrs light-dark cycles and 16× per hour forced air ventilation, temperature of 20-22° C. and 50-65% humidity on wood chips sterilized by hot air. The animals had free access to drinking water and PK-120-1 mouse cubes (GOST P50258-92; Laboratorsnab LLC, Russia).
(§2) PIK2 and PIK7 peptides were dissolved in water and administered to mice as a single intraperitoneal injection. The animals were followed for 14 days after peptide injections. An increasing dosage scheme was applied where each tested dose surpassed the previous dose by 50%. The lowest dose of the active substance was determined that caused animal death.

BALB/c mice = experiment: Acute toxicity in mice, single injection; format: in vivo
Procedure: as §1, §2

## C[C@H](NC(=O)[C@H](C)NC(=O)[C@H](CCCNC(=N)N)NC(=O)[C@@H](CCCCN)NC(=O)[C@@H](N)CCCCN)C(=O)N[C@@H](CCCNC(=N)N)C(=O)N[C@@H](C)C(=O)N[C@H](C(=O)N[C@@H](CO)C(N)=O)[C@@H](C)O [PIK7, H-Lys-D-Lys-Arg-Ala-Ala-Arg-Ala-Thr-Ser-NH2] (H-K[dK]RAARATS-NH2)
Chinchilla rabbits
  other standard hematological and biochemical parameters: not altered
Chinchilla rabbits; 24-hrs testing period
  overall health status and behavior: no significant changes either in the overall health status or behavior
Chinchilla rabbits; 24 hrs after administration, baseline 1.63 mmol/L
  triglyceride levels: 2.79 mmol/L
Chinchilla rabbits; 24 hrs after administration, baseline 38.81±1.49%
  hematocrit: 35.90±0.18%
Chinchilla rabbits; 24 hrs after administration, baseline 73.6±2.58 g/L
  total plasma protein: 69.2 ± 0.47 g/L
Chinchilla rabbits; 24 hrs after administration, baseline 131±5 g/L
  hemoglobin level: 120 ± 7 g/L
Chinchilla rabbits; group of 4
  survival: all animals survived
[1]
  effect on thrombin-induced FITC-dextran hyperpermeability: completely abolished the FITC-dextran hyperpermeability; also recorded: effectively abolished FITC-dextran hyperpermeability
[2]; 1H-NMR, 37° C., peptide 3 mg/ml
  T1/2, half-life in human plasma in vitro: ≥5.33 h
[2]; human plasma in vitro
  resistance to proteolysis as compared to the structural analogue (MLC11-19): by one order of magnitude
[2]; 1H-NMR, 37° C., peptide 3 mg/ml (FIG. 2), read-out: half-life in human plasma
  half-life: ≥ 7 h
[2]; 1H-NMR, 37° C., peptide 3 mg/ml, read-out: T1/2, half-life in human plasma in vitro
  half-life: > 5.33 h
[3]
  LD50: > 1000 mg/kg
BALB/c mice; BALB/c mice, single intraperitoneal injection
  lowest lethal dose, fold higher than with PIK2: 47 fold
BALB/c mice; BALB/c mice, single intraperitoneal injection, followed 14 days
  lowest dose of the active substance that caused animal death: 1274 mg/kg
BALB/c mice; mice, single intraperitoneal injection of a toxic dose
  signs after a toxic dose: movement retardation and death within the following 24 hrs
